Consider 38 molecules from US10000473B2, “Indazole derivatives useful as glucagon receptor antagonists” (Janssen Pharmaceutica NV, priority 2016, dated 2018).

Values joined by “and” are separate entries in the source; they are usually repeats but may differ in a detail not shown here. Equal entries are not always repeated.

T1 sequence (P47871 26-477): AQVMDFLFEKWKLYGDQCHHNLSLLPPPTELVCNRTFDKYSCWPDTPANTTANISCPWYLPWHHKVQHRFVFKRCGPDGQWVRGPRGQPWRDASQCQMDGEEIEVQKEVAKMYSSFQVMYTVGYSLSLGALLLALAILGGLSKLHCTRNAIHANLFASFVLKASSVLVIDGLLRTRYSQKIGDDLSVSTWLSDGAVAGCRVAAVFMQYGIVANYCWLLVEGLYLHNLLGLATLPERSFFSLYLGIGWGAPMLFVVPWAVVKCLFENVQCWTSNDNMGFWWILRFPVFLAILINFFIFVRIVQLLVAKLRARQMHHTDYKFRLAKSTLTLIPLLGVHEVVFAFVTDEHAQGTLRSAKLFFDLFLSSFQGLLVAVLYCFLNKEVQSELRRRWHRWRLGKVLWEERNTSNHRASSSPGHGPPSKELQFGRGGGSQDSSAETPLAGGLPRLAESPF

This test addresses T1, human GCGR (Homo sapiens, UniProt P47871).
T1 construct: expressed in transfected cells; host or cells: HEK293 (hGluc-1HEK), pcDNA3.1, G418 selection
Put plainly: Cellular functional assay, cAMP readout (glucagon-stimulated cAMP, LANCE TR-FRET). In kind it is cell-based. Particulars: HEK293 cells stably expressing full-length human GCGR; glucagon 100 pM; IC50 converted to Ki; read-out: Inhibition of cAMP Ki. (TR-FRET usually uses a lanthanide donor and a delayed reading to cut background.)
Usually Ki stands for a dissociation constant, usually derived from enzyme kinetics or from competition with a known ligand. Regarding `Cc1cc(Cl)ccc1-c1ccc2c(cnn2C(CC(C)C)c2ccc(C(=O)NCCC(=O)O)nc2)c1` (centres unmarked) [Compound #14, 3-(5-(1-(5-(4-Chloro-2-methylphenyl)-1H-indazol-1-yl)-3-methylbutyl)picolinamido)propanoic acid], the Ki amounted to 447 nM.
Then `Cc1c(-c2ccc(Cl)cc2Cl)ccc2nn(C(CC(C)C)c3ccc(C(=O)NCCC(=O)O)cc3)cc12` (centres unmarked) [Compound #190, 3-(4-(1-(5-(2,4-Dichlorophenyl)-4-methyl-2H-indazol-2-yl)-3-methylbutyl)benzamido)propanoic acid], with 25 nM.
Then `COc1c(-c2ccc(C(F)(F)F)cc2Cl)ccc2nn([C@H](CC(C)C)c3ccc(C(=O)NCCC(=O)O)cc3)cc12` [Compound #191, 3-[[4-[(1R)-1-[5-[2-Chloro-4-(trifluoromethyl)phenyl]-4-methoxy-indazol-2-yl]-3-methyl-butyl]benzoyl]amino]propanoic acid], with 35 nM.
The value for `Cc1cc(C(F)(F)F)ccc1-c1ccc2c(cnn2C(CC(C)C)c2ccc(C(=O)NCCC(=O)O)cc2)c1Cl` (centres unmarked) [Compound #135, 3-(4-(1-(4-Chloro-5-(2-methyl-4-(trifluoromethyl)phenyl)-1H-indazol-1-yl)-3-methylbutyl)benzamido)propanoic acid] was 100 nM; that for `Cc1cc(Cl)ccc1-c1ccc2nn(C(CCC3CCCCC3)c3ccc(C(=O)NCCC(=O)O)cc3)cc2c1` (centres unmarked) [compound 247] was 37 nM; that for `CC(C)(C)CC(c1ccc(C(=O)NCCC(=O)O)nc1)n1ncc2cc(-c3ccc(C(F)(F)F)cc3)ccc21` (centres unmarked) [compound 237] was 160 nM.
As for `CC(C)CC(c1ccc(C(=O)NCCC(=O)O)nc1)n1ncc2cc(-c3ccc(Cl)cc3Cl)ccc21` (centres unmarked) [Compound #113, 3-(5-(1-(5-(2,4-Dichlorophenyl)-1H-indazol-1-yl)-3-methylbutyl)picolinamido)propanoic acid], the inhibition constant Ki turned out to be 420 nM.
Then `CC(C)CC(c1ccc(C(=O)NCCC(=O)O)cc1)n1ncc2cc(-c3cc4ccccc4o3)ccc21` (centres unmarked) [compound 77], with 135 nM; and `O=C(O)CCNC(=O)c1ccc(C(CCC(F)(F)F)n2ncc3cc(-c4cc5ccccc5o4)ccc32)cc1` (centres unmarked) [Compound #11, 3-[[4-[1-[5-(Benzofuran-2-yl)indazol-1-yl]-4,4,4-trifluorobutyl]benzoyl]amino]propanoic acid], with 175 nM; and `CC(C)CC(c1ccc(C(=O)NCCC(=O)O)nc1)n1ncc2cc(-c3ccc(OC(F)(F)F)cc3)ccc21` (centres unmarked) [Compound #114, 3-(5-(3-Methyl-1-(5-(4-(trifluoromethoxy)phenyl)-1H-indazol-1-yl)butyl)picolinamido)propanoic acid], with 650 nM.
As to `O=C(O)CCNC(=O)c1ccc(C(CCC(F)(F)F)n2cc3cc(-c4cc5ccccc5s4)ccc3n2)cc1` (centres unmarked) [Compound #122, 3-[[4-[1-[5-(Benzothiophen-2-yl)indazol-2-yl]-4,4,4-trifluorobutyl]benzoyl]amino]propanoic acid], the Ki was determined as 125 nM.
For the molecule `CC(C)CC(c1ccc(C(=O)NCCC(=O)O)nc1)n1ncc2cc(-c3ccc(C(F)(F)F)cc3)ccc21` (centres unmarked) [compound 74], the Ki amounted to 255 nM.
`O=C(O)CCNC(=O)c1ccc(C(CCC(F)(F)F)n2ncc3cc(-c4cc5ccccc5s4)ccc32)cc1` (centres unmarked) [Compound #115, 3-[[4-[1-[5-(Benzothiophen-2-yl)indazol-1-yl]-4,4,4-trifluorobutyl]benzoyl]amino]propanoic acid]: the Ki was 140 nM.
As for `CC(C)CC(c1ccc(C(=O)NCCC(=O)O)cc1)n1ncc2cc(-c3ccc(C(C)(C)C)cc3)ccc21` (single isomer, unassigned) [Compound #37], the Ki is 62 nM and 130 nM.
Then `COc1c(-c2ccc(C(F)(F)F)cc2C)ccc2c1cnn2[C@@H](CC(C)C)c1ccc(C(=O)NCCC(=O)O)cc1` [Compound #192, 3-[[4-[(1S)-1-[4-Methoxy-5-[2-methyl-4-(trifluoromethyl)phenyl]indazol-1-yl]-3-methyl-butyl]benzoyl]amino]propanoic acid], with 22 nM; and `CC(c1ccc(C(=O)NCCC(=O)O)cc1)n1ncc2cc(-c3ccc(C(C)(C)C)cc3)ccc21` (centres unmarked) [Compound #68, 3-(4-(1-(5-(4-(tert-Butyl)phenyl)-1H-indazol-1-yl)ethyl)benzamido) propanoic acid], with 2800 nM; and `O=C(O)CCNC(=O)c1ccc(C(CCC(F)(F)F)n2ncc3cc(-c4ccc(C(F)(F)F)cc4Cl)ccc32)cc1` (centres unmarked) [Compound #167, 3-[[4-[1-[5-[2-Chloro-4-(trifluoromethyl)phenyl]indazol-1-yl]-4,4,4-trifluorobutyl]benzoyl]amino]propanoic acid], with 270 nM.
The value for `CCOc1c(-c2ccc(C(F)(F)F)cc2Cl)ccc2c1cnn2C(CC(C)C)c1ccc(C(=O)NCCC(=O)O)nc1` (centres unmarked) [Compound #179, 3-(5-(1-(5-(2-Chloro-4-(trifluoromethyl)phenyl)-4-ethoxy-1H-indazol-1-yl)-3-methylbutyl)picolinamido)propanoic acid] was 24 nM; that for `Cc1cc(C(F)(F)F)ccc1-c1ccc2nn([C@@H](CC(C)C)c3ccc(C(=O)NCCC(=O)O)cc3)cc2c1C` [Compound #156, 3-[[4-[(1S)-3-Methyl-1-[4-methyl-5-[2-methyl-4-(trifluoromethyl)phenyl]indazol-2-yl]butyl]benzoyl]amino]propanoic acid] was 22 nM; that for `CC(C)CC(c1ccc(C(=O)NCCC(=O)O)cc1)n1cc2cc(-c3cc4ccccc4o3)ccc2n1` (centres unmarked) [Compound #13] was 76 nM.
Consider `O=C(O)CCNC(=O)c1ccc(C(CCC(F)(F)F)n2ncc3cc(-c4cc(Cl)cc(Cl)c4)ccc32)cc1` (centres unmarked) [Compound #45, 3-[[4-[1-[5-(3,5-Dichlorophenyl)indazol-1-yl]-4,4,4-trifluorobutyl]benzoyl]amino]propanoic acid], for which the Ki was found to be 1650 nM.
The value for `CC(C)CC(c1ccc(C(=O)NCCC(=O)O)cc1)n1ncc2cc(-c3ccc(C(F)(F)F)cc3Cl)ccc21` (centres unmarked) [Compound #41, 3-(4-(1-(5-(2-Chloro-4-(trifluoromethyl)phenyl)-1H-indazol-1-yl)-3-methylbutyl)benzamido)propanoic acid] was 86 nM; that for `CC(C)C[C@@H](c1ccc(C(=O)NCCC(=O)O)cc1)n1ncc2cc(-c3ccc(C(F)(F)F)cc3Cl)ccc21` [Compound #90, 3-[[4-[(1S)-1-[5-[2-Chloro-4-(trifluoromethyl)phenyl]indazol-1-yl]-3-methyl-butyl]benzoyl]amino]propanoic acid] was 85 nM.
The value for `CCCCCC(c1ccc(C(=O)NCCC(=O)O)cc1)n1ncc2cc(-c3ccc(C(C)(C)C)cc3)ccc21` (centres unmarked) [compound 88] was 255 nM; that for `Cc1cc(Cl)ccc1-c1ccc2nn(C(CC3CCCCC3)c3ccc(C(=O)NCCC(=O)O)cc3)cc2c1` (centres unmarked) [compound 153] was 42 nM.
The value for `CCCCCCC(c1ccc(C(=O)NCCC(=O)O)cc1)n1ncc2cc(-c3ccc(C(C)(C)C)cc3)ccc21` (centres unmarked) [compound 128] was 199 nM; that for `O=C(O)CCNC(=O)c1ccc(C(CCC(F)(F)F)n2ncc3cc(-c4ccc(OC(F)(F)F)cc4)ccc32)cc1` (centres unmarked) [Compound #76, 3-[[4-[4,4,4-Trifluoro-1-[5-[4-(trifluoromethoxy)phenyl]indazol-1-yl]butyl]benzoyl]amino]propanoic acid] was 700 nM.
Regarding `COc1c(-c2ccc(C(F)(F)F)cc2C)ccc2c1cnn2C(CC(C)C)c1ccc(C(=O)NCCC(=O)O)cc1` (centres unmarked) [Compound #29, 3-(4-(1-(4-Methoxy-5-(2-methyl-4-(trifluoromethyl)phenyl)-1H-indazol-1-yl)-3-methylbutyl)benzamido)propanoic acid], the Ki worked out at 60 nM.
With `CC(C)CC(c1ccc(C(=O)NCCC(=O)O)cc1)n1cc2cc(-c3cc4ccc(F)cc4s3)ccc2n1` (centres unmarked) [compound 57], the inhibition constant Ki is 170 nM.
The value for `Cc1cc(-c2ccc(C(C)(C)C)cc2)cc2cnn(C(CC(C)C)c3ccc(C(=O)NCCC(=O)O)nc3)c12` (centres unmarked) [compound 72] was greater than 2600 nM; that for `CC(C)CCn1cc(-c2ccc3nn(C(CC(C)C)c4ccc(C(=O)NCCC(=O)O)cc4)cc3c2)cn1` (centres unmarked) [Compound #17] was greater than 5200 nM.
The value for `CC(C)CC(c1ccc(C(=O)NCCC(=O)O)nc1)n1cc2cc(-c3cc4ccccc4s3)ccc2n1` (centres unmarked) [compound 96] was 92 nM; that for `Cc1c(-c2ccc(C(F)(F)F)c(Cl)c2)ccc2nn(C(CC(C)C)c3ccc(C(=O)NCCC(=O)O)cc3)cc12` (centres unmarked) [Compound #149, 3-(4-(1-(5-(3-Chloro-4-(trifluoromethyl)phenyl)-4-methyl-2H-indazol-2-yl)-3-methylbutyl)benzamido)propanoic acid] was 70 nM.
Then `O=C(O)CCNC(=O)c1ccc(C(CC2CCCCC2)n2cc3cc(-c4ccc(C(F)(F)F)cc4)ccc3n2)cn1` (centres unmarked) [compound 240], with 200 nM; and `COc1ccc2cc(-c3ccc4nn(C(CC(C)C)c5ccc(C(=O)NCCC(=O)O)cc5)cc4c3)ccc2c1` (centres unmarked) [compound 82], with greater than 1300 nM.
Turning to `CC(C)(C)c1ccc(-c2ccc3nn(C(CC4CCCCC4)c4ccc(C(=O)NCCC(=O)O)cc4)cc3c2)cc1` (centres unmarked) [Compound #228, 3-(4-(1-(5-(4-(tert-Butyl)phenyl)-2H-indazol-2-yl)-2-cyclohexylethyl)benzamido)propanoic acid], the Ki was 130 nM.
Then `CC(C)CC(c1ccc(C(=O)NCCC(=O)O)cc1)n1ncc2cc(-c3cnn(C)c3)ccc21` (centres unmarked) [Compound #12, 3-(4-(3-Methyl-1-(5-(1-methyl-1H-pyrazol-4-yl)-1H-indazol-1-yl)butyl)benzamido)propanoic acid], with 2300 nM; and `Cc1c(-c2ccc(C(F)(F)F)cc2Cl)ccc2c1cnn2C(CC(C)C)c1ccc(C(=O)NCCC(=O)O)nc1` (centres unmarked) [Compound #198, 3-(5-(1-(5-(2-Chloro-4-(trifluoromethyl)phenyl)-4-methyl-1H-indazol-1-yl)-3-methylbutyl)picolinamido)propanoic acid], with 60 nM.
